Measurements published in the supplement of paper PMC10627819.

Key:
Experiment in all cases: Bliss interaction score (quartile over a dose matrix) (fitness difference); higher = more antagonism (negative = synergy)
[1] = system: B. subtilis 168
How it was run: (§1)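 Fitness was derived from optical density at entry into stationary phase, divided by the robust mean of the no-drug wells on the same plate. That reading was taken as OD595, and the ratio was capped at 1. Single-drug fitness was inferred from the combination data. The Bliss score, observed fitness minus the expected product of single-drug fitness, was summarised as quartiles over technical, biological and donor/recipient replicates.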

[2] = system: S. pneumoniae D39V
How it was run: as §1

[3] = system: S. aureus Newman
How it was run: as §1

[4] = system: S. aureus DSM 20231
How it was run: as §1
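Also: first quartile when negative (synergy) and third quartile when positive (antagonism).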

Row | Structure (SMILES) | Bliss interaction score [1] | Bliss interaction score [2] | Bliss interaction score [3] | Bliss interaction score [4] | Bliss interaction score ([1]; main component drawn) | Bliss interaction score ([2]; main component drawn) | Bliss interaction score ([3]; main component drawn) | Bliss interaction score ([4]; main component drawn)
1 | CC(=O)O[C@H]1C[C@@]2(C)[C@@H](C[C@@H](O)[C@H]3[C@@]4(C)CC[C@@H](O)[C@@H](C)[C@@H]4CC[C@@]32C)/C1=C(\CCC=C(C)C)C(=O)O [Fusidic acid] + CN[C@@H]1[C@H](O[C@H]2[C@H](O[C@H]3[C@H](O)[C@@H](O)[C@H](N=C(N)N)[C@@H](O)[C@@H]3N=C(N)N)O[C@@H](C)[C@]2(O)C=O)O[C@@H](CO)[C@H](O)[C@H]1O [Streptomycin] | 0.0692 | -0.0901 | -0.0834 | 0.034 |  |  |  | 
2 | CC(=O)O[C@H]1C[C@@]2(C)[C@@H](C[C@@H](O)[C@H]3[C@@]4(C)CC[C@@H](O)[C@@H](C)[C@@H]4CC[C@@]32C)/C1=C(\CCC=C(C)C)C(=O)O [Fusidic acid] + CN[C@@H]1[C@H](O)[C@H](NC)[C@H]2O[C@@]3(O)C(=O)C[C@@H](C)O[C@H]3O[C@@H]2[C@H]1O [Spectinomycin] | 0.0642 | -0.0789 | -0.0448 | 0.027 |  |  |  | 
3 | CC(=O)OC[C@H]1O[C@@H]([S-])[C@H](OC(C)=O)[C@@H](OC(C)=O)[C@@H]1OC(C)=O.CCP(CC)CC.[Au+] [Auranofin] + CN[C@@H]1[C@H](O[C@H]2[C@H](O[C@H]3[C@H](O)[C@@H](O)[C@H](N=C(N)N)[C@@H](O)[C@@H]3N=C(N)N)O[C@@H](C)[C@]2(O)C=O)O[C@@H](CO)[C@H](O)[C@H]1O [Streptomycin] | 0.0215 | -0.163 | -0.0862 | -0.0362 |  |  |  | 
4 | N[C@@H]1CONC1=O [CycloserineD] + CN(C)C(=O)C(CCN1CCC(O)(c2ccc(Cl)cc2)CC1)(c1ccccc1)c1ccccc1 [Loperamide] | -0.209 | 0.289 | 0.0674 | 0.0915 |  |  |  | 
5 | CC(=O)OC[C@H]1O[C@@H]([S-])[C@H](OC(C)=O)[C@@H](OC(C)=O)[C@@H]1OC(C)=O.CCP(CC)CC.[Au+] [Auranofin] + O=C1CN(/N=C/c2ccc([N+](=O)[O-])o2)C(=O)N1 [Nitrofurantoin] | -0.066 | -0.421 | -0.132 | -0.0217 |  |  |  | 
6 | N[C@@H]1CONC1=O [CycloserineD] + CCC(C)C1C(=O)NC(=C)C(=O)NC(C(=O)NC(CSCC(C(=O)N1)NC(=O)/C(=C/C)/NC(=O)C(C(C)CC)N)C(=O)NC2C(SCC(NC(=O)CNC(=O)C3CCCN3C2=O)C(=O)NC(CCCCN)C(=O)NC4C(SCC(NC(=O)CNC(=O)C(NC(=O)C(NC(=O)C(NC(=O)CNC4=O)C)CC(C)C)CCSC)C(=O)NC(CC(=O)N)C(=O)NC(CCSC)C(=O)NC(CCCCN)C(=O)NC5C(SCC6C(=O)NC(C(=O)NC(CSC(C(C(=O)N6)NC(=O)C(NC5=O)C)C)C(=O)NC(CO)C(=O)NC(C(C)CC)C(=O)NC(CC7=CN=CN7)C(=O)NC(C(C)C)C(=O)NC(=C)C(=O)NC(CCCCN)C(=O)O)CC8=CN=CN8)C)C)C)CC(C)C [Nisin] |  |  |  |  | 0.0525 | 0.0554 | 0.0401 | 0.193
7 | N[C@@H]1CONC1=O [CycloserineD] + CC[C@H]1OC(=O)[C@H](C)C(=O)[C@H](C)[C@@H](O[C@@H]2O[C@H](C)C[C@H](N(C)C)[C@H]2O)[C@](C)(OC)C[C@@H](C)C(=O)[C@H](C)[C@H]2N(CCCCn3cnc(-c4cccnc4)c3)C(=O)O[C@]12C [Telithromycin] | 0.0974 | 0.0906 | 0.0514 | 0.116 |  |  |  | 
8 | O=C(O[C@@H]1Cc2c(O)cc(O)cc2O[C@@H]1c1cc(O)c(O)c(O)c1)c1cc(O)c(O)c(O)c1 [EGCG] + CC(=O)O[C@H]1C[C@@]2(C)[C@@H](C[C@@H](O)[C@H]3[C@@]4(C)CC[C@@H](O)[C@@H](C)[C@@H]4CC[C@@]32C)/C1=C(\CCC=C(C)C)C(=O)O [Fusidic acid] | 0.0767 | -0.143 | -0.0283 | -0.019 |  |  |  | 
9 | CC(=O)O[C@H]1C[C@@]2(C)[C@@H](C[C@@H](O)[C@H]3[C@@]4(C)CC[C@@H](O)[C@@H](C)[C@@H]4CC[C@@]32C)/C1=C(\CCC=C(C)C)C(=O)O [Fusidic acid] + CCC(C)C1C(=O)NC(=C)C(=O)NC(C(=O)NC(CSCC(C(=O)N1)NC(=O)/C(=C/C)/NC(=O)C(C(C)CC)N)C(=O)NC2C(SCC(NC(=O)CNC(=O)C3CCCN3C2=O)C(=O)NC(CCCCN)C(=O)NC4C(SCC(NC(=O)CNC(=O)C(NC(=O)C(NC(=O)C(NC(=O)CNC4=O)C)CC(C)C)CCSC)C(=O)NC(CC(=O)N)C(=O)NC(CCSC)C(=O)NC(CCCCN)C(=O)NC5C(SCC6C(=O)NC(C(=O)NC(CSC(C(C(=O)N6)NC(=O)C(NC5=O)C)C)C(=O)NC(CO)C(=O)NC(C(C)CC)C(=O)NC(CC7=CN=CN7)C(=O)NC(C(C)C)C(=O)NC(=C)C(=O)NC(CCCCN)C(=O)O)CC8=CN=CN8)C)C)C)CC(C)C [Nisin] |  |  |  |  | -0.0332 | -0.0281 | -0.0346 | 0.0299
10 | CC(=O)OC[C@H]1O[C@@H]([S-])[C@H](OC(C)=O)[C@@H](OC(C)=O)[C@@H]1OC(C)=O.CCP(CC)CC.[Au+] [Auranofin] + CN1C2=CC=CC=C2N=C3C1=CC=CC3=O [Pyocyanin] | -0.0273 | 0.0818 | -0.158 | 0.0747 |  |  |  | 
11 | CC(=O)O[C@H]1C[C@@]2(C)[C@@H](C[C@@H](O)[C@H]3[C@@]4(C)CC[C@@H](O)[C@@H](C)[C@@H]4CC[C@@]32C)/C1=C(\CCC=C(C)C)C(=O)O [Fusidic acid] + C/C(=C\C(=O)OCCCCCCCCC(=O)O)C[C@@H]1OC[C@H](C[C@@H]2O[C@H]2[C@@H](C)[C@H](C)O)[C@@H](O)[C@H]1O [Pseudomonic acid] | -0.0331 | 0.1 | 0.031 | 0.0339 |  |  |  | 
12 | C/C(=C\C(=O)OCCCCCCCCC(=O)O)C[C@@H]1OC[C@H](C[C@@H]2O[C@H]2[C@@H](C)[C@H](C)O)[C@@H](O)[C@H]1O [Pseudomonic acid] + Oc1cc(Cl)ccc1Oc1ccc(Cl)cc1Cl [Triclosan] | -0.0255 | 0.0696 | -0.0174 | -0.0069 |  |  |  | 
13 | CC(=O)OC[C@H]1O[C@@H]([S-])[C@H](OC(C)=O)[C@@H](OC(C)=O)[C@@H]1OC(C)=O.CCP(CC)CC.[Au+] [Auranofin] + COc1cc(Cc2cnc(N)nc2N)cc(OC)c1OC [Trimethoprim] | -0.0454 | -0.0729 | -0.0844 | 0.0284 |  |  |  | 
